Test results: PubChem BioAssay AID1259411 (Chemical Carcinogenesis Research Information System (CCRIS), 2018)
Active and inactive are the calls of the source. The rule behind the calls is not given here.

Test system: rodent carcinogenicity bioassays, tumor incidence
Experiment: CCRIS carcinogenicity studies
Method in brief: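 NCI-built, expert-reviewed records of carcinogenicity and related test outcomes (mutagenicity, tumor promotion/inhibition) compiled from published and report sources, historical span 1985-2011, not updated.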

With `O=NN1CCC(=O)NC1=O` the carcinogen call (Species: RAT, Strain/Sex: WISTAR/FEMALE, Route: ORAL, Dose: 0, 450 MG/L CITRATE BUFFER SOLUTION IN DRINKING WATER 5D/WK FOR AN AVERAGE TOTAL DOSE OF 0, 950 MG (STUDY DURATION: 28 W, Dose: 0, 450 MG/L CITRATE BUFFER SOLUTION IN DRINKING WATER 5D/WK FOR AN AVERAGE TOTAL DOSE OF 0, 950 MG (STUDY DURATION: 28 W, Tumor Site: Type of Lesion: LIVER: CARCINOMA) was “active; positive” and the carcinogen call (Species: RAT, Strain/Sex: WISTAR/MALE, Route: ORAL, Dose: 0, 450 MG/L CITRATE BUFFER SOLUTION IN DRINKING WATER 5D/WK FOR AN AVERAGE TOTAL DOSE OF 0, 1250 MG (STUDY DURATION: 32, Dose: 0, 450 MG/L CITRATE BUFFER SOLUTION IN DRINKING WATER 5D/WK FOR AN AVERAGE TOTAL DOSE OF 0, 1250 MG (STUDY DURATION: 32, Tumor Site: Type of Lesion: LIVER: CARCINOMA, KIDNEY: ADENOMA) was “active; positive”.

For `CN(N=O)C(CCC(=O)O)c1cccnc1` (centres undefined), the carcinogen call (Species: MOUSE, Strain/Sex: STRAIN-A/FEMALE, Route: INTRAPERITONEAL, Dose: 0, 2.23 MG 3/WK FOR 20 WK (STUDY DURATION: 50 WK)) was “inactive; negative”, the carcinogen call (Species: MOUSE, Strain/Sex: STRAIN-A/FEMALE, Route: INTRAPERITONEAL, Dose: 0, 200 UMOL MOUSE (TOTAL DOSE) ADMINISTERED IN 0.1 ML SALINE 3/WK (TOTAL 20 INJECTIONS) (STUDY DURATION: 37 WK)) was “inactive; negative” and the carcinogen call (Species: MOUSE, Strain/Sex: STRAIN-A/FEMALE, Route: INTRAPERITONEAL, Dose: 0, 200 UMOL TOTAL DOSE ADMINISTERED IN SUBDOSES 3/WK FOR 7 WK (STUDY DURATION: 37 WK)) was “inactive; negative”.

With `Cn1cc(C(=O)O)c(=O)c2ccc(/C=C/c3ccc([N+](=O)[O-])o3)nc21` the carcinogen call (Species: MOUSE, Strain/Sex: ICR/MALE, Route: ORAL, Dose: 0, 0.012% IN DIET FOR 14 WK (STUDY DURATION: 53 WK), Tumor Site: Type of Lesion: FORESTOMACH: SQUAMOUS CELL CARCINOMA, SQUAMOUS CELL PAPILLOMA, LUNG: PAPILLARY ADENOCARCINOMA) was “active; positive”.

For `COc1c(N2C[C@@H]3CCCN[C@@H]3C2)c(F)cc2c(=O)c(C(=O)O)cn(C3CC3)c12`, the carcinogen call (Species: RAT, Strain/Sex: WISTAR/MALE, FEMALE, Route: GAVAGE, Dose: 0, 500 MG/KG BW/D FOR 38 WK (STUDY DURATION: 38 WK)) was “inactive; negative”.

For `CCn1cc(C(=O)O)c(=O)c2cc(F)c(N3CCNCC3)cc21`, the carcinogen call (Species: Rat, Strain/Sex: F344/Male (15/Group), Route: Oral, Dose: 0, 750, 1500 mg/kg daily for 3 wks after 2/3rd partial hepatectomy, from 2 wks after carcinogen dosing, 500 ppm phenobar, Tumor Site: Type of Lesion: Liver) was “inactive; negative”.

`[Cl][Fe]([Cl])[Cl]` was tested, and the carcinogen call (Species: RAT, Strain/Sex: F344/FEMALE, Route: ORAL, Dose: 0, 0.25, 0.5% IN DRINKING WATER FOR 104 WK (STUDY DURATION: 112 WK), Dose: 0, 0.25, 0.5% IN DRINKING WATER FOR 104 WK (STUDY DURATION: 112 WK)) was “inactive; negative” and the carcinogen call (Species: RAT, Strain/Sex: F344/MALE, Route: ORAL, Dose: 0, 0.25, 0.5% IN DRINKING WATER FOR 104 WK (STUDY DURATION: 112 WK), Dose: 0, 0.25, 0.5% IN DRINKING WATER FOR 104 WK (STUDY DURATION: 112 WK)) was “inactive; negative”.

`C=C(C)C#N` was tested, and the carcinogen call (Species: MOUSE, Strain/Sex: B6C3F1/FEMALE, Route: GAVAGE, Dose: 0, 1.5, 3, 6 MG/KG 5 D/WK FOR 104-105 WK (STUDY DURATION: 104-105 WK), Dose: 0, 1.5, 3, 6 MG/KG 5 D/WK FOR 104-105 WK (STUDY DURATION: 104-105 WK)) was “inactive; negative”, the carcinogen call (Species: MOUSE, Strain/Sex: B6C3F1/MALE, Route: GAVAGE, Dose: 0, 1.5, 3, 6 MG/KG 5 D/WK FOR 104-105 WK (STUDY DURATION: 104-105 WK), Dose: 0, 1.5, 3, 6 MG/KG 5 D/WK FOR 104-105 WK (STUDY DURATION: 104-105 WK)) was “inactive; negative” and the carcinogen call (Species: RAT, Strain/Sex: F344/FEMALE, Route: GAVAGE, Dose: 0, 3, 10, 30 MG/KG 5 D/WK FOR 104-105 WK (STUDY DURATION: 104-105 WK), Dose: 0, 3, 10, 30 MG/KG 5 D/WK FOR 104-105 WK (STUDY DURATION: 104-105 WK)) was “inactive; negative”. The carcinogen call (Species: RAT, Strain/Sex: F344/MALE, Route: GAVAGE, Dose: 0, 3, 10, 30 MG/KG 5 D/WK FOR 104-105 WK (STUDY DURATION: 104-105 WK), Dose: 0, 3, 10, 30 MG/KG 5 D/WK FOR 104-105 WK (STUDY DURATION: 104-105 WK)) was “inactive; negative”.
